The test system of data set [1] is PACS. Briefly: MTT cytotoxicity assay, PACS. It counts as cell-based. The following applies: ovarian (mouse), 72 hr, read-out: IC50, cell killing. The method, then:
(§1) All cell lines were obtained from the American Type Culture Collection (ATCC) and cultured in the specified medium supplemented with 10% fetal bovine serum, 100 IU/mL penicillin, and 100 μg/mL streptomycin at 37° C. in a humidified 5% CO2/95% air incubator. To assess drug cytotoxicity cells were seeded at 2,500 cells/well (10,000 cells/well for MM lines and primary cells) in 100 μL medium in 96-well plate. […]
(§2) It was examined whether the RPN13 inhibitor, RA475, was cytotoxic for cancer cell lines using the MTT assay.
In general terms: Tetrazolium dyes change colour on reduction, which living cells bring about.

In data set [2] the test system is PEA1. Briefly: MTT cytotoxicity assay, PEA1. It counts as cell-based. The following applies: PEA1, ovarian, 72 hr, read-out: IC50, cell killing. The method, then: as §1, §2
Data set [3] deals with PEA2. Briefly: MTT cytotoxicity assay, PEA2. The data set is classed as cell-based. Particulars: PEA2, ovarian, 72 hr, read-out: IC50, cell killing. On the procedure:
as §1, §2

The conditions of data set [4]: under these conditions; reference (34); cited from earlier work.
For data set [5], the system named is high molecular weight polyubiquitinated proteins in SKOV3 cells. The data set is described as follows: Western blot for polyubiquitinated proteins, SKOV3 cells. Particulars: 12 hr, Up284 and RA475 0.5 and 1 μM, RA190 1 μM. The data set is classed as cell-based. On the procedure:
Cell lysate (10-20 μg total protein) prepared in MPER (Pierce) from each sample was subjected to SDS-PAGE, transferred to PVDF membranes and analyzed by Western blot using antibodies specific for ubiquitin (P4D1, sc-8017, Santa Cruz), or after stripping antibody for actin (#66009, Protein Tech Group), at the dilutions recommended by the manufacturers, and for secondary antibodies either peroxidase-linked anti-mouse IgG or anti-rabbit IgG (GE Healthcare UK Ltd) were utilized at the recommended dilution. The blots were developed using HyGLO chemiluminescent detection reagent (Denville).
Like RA190, RA475 was designed to be an inhibitor of upstream 19S RP proteasome function. […] Treatment with the same doses of Up284 (0.5 and 1 μM) or 1 μM RA190 provided positive controls, and vehicle alone (DMSO) was used as the negative control. At the end of the incubation, attached cells were lysed using MPER buffer according to the manufacturer's protocol. The lysates were subjected to Western blot analysis using antibody to ubiquitin, and then stripped and re-probed with actin antibody to provide a loading control (FIG. 5).
Proteasome inhibitors cause a rapid accumulation of polyUb proteins that is associated with unresolved UPR stress and the induction of apoptosis. Since RA475 is cytotoxic to ovarian cancer cells (Table 1), and induces such a rapid accumulation of polyUb proteins (FIG. 5), it was examined whether RA475 also triggered apoptosis. SKOV3 cells (FIG. 5A) were treated with Up284 (0.5 μM and 1 μM), 1 μM RA190, RA475 (0.5 μM and 1 μM) or vehicle alone (DMSO) and then cultured for 12 hr. OVCAR3 cells (FIG. 5B) were treated with Up284 (0.5 μM), Bortezomib (Bz, 0.25 μM), Ixazomib (Iz, 0.25 μM), RA475 (0.5 μM and 1 μM) or vehicle alone (DMSO). The attached cells were harvested and their lysates were subjected to Western blot analysis, first probed with antibody to ubiquitin and then to actin.
Background: Immunoblotting shows a protein as a band on a membrane.

Data set [6] deals with T1, 42 kDa RPN13 (Homo sapiens, UniProt Q16186).
T1 construct: endogenous in cells; host or cells: ES2 cell lysate (clarified, in MPER buffer)
The data set is described as follows: RA190B competitive labeling assay in ES2 cell lysate. The data set is classed as binding. The following applies: ES2 cell lysate pre-incubated 45 min at 4° C. (bortezomib or Up compounds 5 μM), then RA190B 20 μM. On the procedure:
(§3) Clarified cell lysate (40 ug/sample) in MPER buffer was pretreated with streptavidin-coated magnetic beads for 45 min at 4° C. to deplete non-specific biotinylated proteins in the cell lysate. […] Next, the samples were mixed with Laemmli sample buffer (BioRad) and boiled for 5 min. The proteins were separated using a 4-15% Bio-Rad Mini-PROTEAN SDS-PAGE gel (1 hr at 100 V), and transferred to PVDF membrane overnight at 4° C. (24 V). The membrane was blocked with 5% BSA in PBST for 1 hr at RT and washed for 20 minutes (3× with PBST). Then the membrane was probed with HRP-streptavidin (1:10,000 in PBST) for 1 hr at RT, washed for 30 min (3× with PBST), and developed using HyGLO chemiluminescent detection reagent (Denville) for biotin detection.
(§4) ES2 cell lysates were incubated with 20 μM RA190B for 45 min at 4° C., and then separated by SDS-PAGE, transferred to a PVDF membrane.

For data set [7], the target named is T2, 42 kDa cellular protein previously identified as RPN13 (Homo sapiens, UniProt Q16186).
T2 construct: endogenous in cells; host or cells: ES2 cell lysate (clarified, in MPER buffer)
The data set is described as follows: Labeling of ES2 cell lysate with biotinylated probes. It counts as binding. Particulars: 45 min at 4° C., streptavidin-HRP. The method, then: as §4
The lysates were then separated by SDS-PAGE, transferred to a PVDF membrane.

The target of data set [8] is T3, 42 kDa cellular protein, consistent with RPN13 (Homo sapiens, UniProt Q16186).
T3 construct: endogenous in cells; host or cells: SKOV3 or ES2 cell lysates, pre-cleared with streptavidin-coated beads
Briefly: Up284B competitive labeling assay in SKOV3 or ES2 cell lysates. The following applies: pre-cleared SKOV3 or ES2 lysates, 45 min at 4° C., then 5 μM Up284B. The data set is classed as binding. On the procedure: as §3
Briefly SKOV3 or ES2 cell lysates were first pre-cleared with streptavidin-coated beads to deplete endogenous biotinylated proteins. The pre-cleared lysates were then divided into equal aliquots. […] The lysates were then boiled in gel sample buffer, separated by SDS-PAGE, and transferred to a PVDF membrane.

This is an account of results in US12410141B2, “Anti-cancer spirocyclic-guanidine compounds and uses thereof” (The Johns Hopkins University, priority 2020, dated 2025).

The structures appear in SMILES notation.

T1 sequence (Q16186 whole entry): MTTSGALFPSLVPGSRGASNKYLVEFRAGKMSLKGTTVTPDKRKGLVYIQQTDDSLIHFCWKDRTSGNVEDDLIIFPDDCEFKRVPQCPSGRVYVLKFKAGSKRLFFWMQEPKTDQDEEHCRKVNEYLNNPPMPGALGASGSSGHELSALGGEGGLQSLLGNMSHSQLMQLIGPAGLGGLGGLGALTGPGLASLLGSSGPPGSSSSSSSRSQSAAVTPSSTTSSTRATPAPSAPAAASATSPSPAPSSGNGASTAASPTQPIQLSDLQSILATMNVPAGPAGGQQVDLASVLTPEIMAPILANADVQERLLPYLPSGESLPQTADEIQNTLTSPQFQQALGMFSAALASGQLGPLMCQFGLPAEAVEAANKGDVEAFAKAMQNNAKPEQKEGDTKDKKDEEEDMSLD
T2 sequence (Q16186 whole entry): as above
T3 sequence (Q16186 whole entry): as above

Turning to `N#Cc1ccc(/C=C2/C(=O)/C(=C/c3ccc(C#N)cc3)C23CCN(C(=N)N)C3)cc1` [RA477], the IC50 – broadly, the concentration that gives 50% inhibition – stood at 0.405 µM in data set [1], 0.331 µM in data set [2] and 0.312 µM in data set [3].
Regarding `N[C@@H](Cc1ccccc1)C(=O)N1C/C(=C\c2ccc([N+](=O)[O-])cc2)C(=O)/C(=C/c2ccc([N+](=O)[O-])cc2)C1` [RA183], the “metabolism under the plasma / liver microsome conditions” value in data set [4] is “rapidly metabolized”.
Turning to `N[C@@H](Cc1ccccc1)C(=O)N1C/C(=C\c2ccc(Cl)c(Cl)c2)C(=O)/C(=C/c2ccc(Cl)c(Cl)c2)C1` [RA190], the “metabolism under the plasma / liver microsome conditions” value in data set [4] was “rapidly metabolized”. Also, the “accumulation of polyUb proteins” value in data set [5] was “profound accumulation”. In addition, the “competition with binding of RA190B to the 42 kDa RPN13” value (from here on “competition with binding of RA190B”) in data set [6] is given as “competed with the binding of RA190B to the 42 kDa protein”.
`O=C(CCCC[C@@H]1SCC2NC(=O)NC21)N[C@@H](Cc1ccccc1)C(=O)N1C/C(=C\c2ccc(Cl)c(Cl)c2)C(=O)/C(=C/c2ccc(Cl)c(Cl)c2)C1` (some centres unmarked) [RA190B]: in data set [7], the “binding of biotinylated probe to the 42 kDa cellular protein” value was “bound to the 42 kDa cellular protein”.
In the case of `C=CC(=O)N1CCC2(CC1)/C(=C\c1ccc(C#N)cc1)C(=O)/C2=C/c1ccc(C#N)cc1` [Up285], the “competition with binding of RA190B” value in data set [6] was “competed”.
With `CC(C)C[C@H](NC(=O)[C@H](Cc1ccccc1)NC(=O)c1cnccn1)B(O)O` [bortezomib, reference compound], the “competition with binding of Up284B probe to RPN13” value in data set [8] is “not competed”. The “competition with binding of RA190B” value in data set [6] is reported as “neither the vehicle (DMSO) nor bortezomib (negative controls) competed”.
